Tests used:
Stagonospora nodorum = experiment: Test D: wheat glume blotch, preventive spray on wheat seedlings; details: 100 = 100% disease control; for Test D rating (% disease control): 10 ppm, wheat glume blotch, 0 = no control
Botrytis cinerea = experiment: Test B: gray mold, preventive spray on tomato seedlings; details: 100 = 100% disease control; for Test B rating (% disease control): 10 ppm, gray mold on tomato, 0 = no control
From the text: (§1) General protocol for preparing test solutions for Tests A-G: the test compounds were first dissolved in acetone in an amount equal to 3% of the final volume and then suspended at the desired concentration (in ppm) in acetone and purified water (50/50 mix by volume) containing 250 ppm of the surfactant PEG400 (polyhydric alcohol esters). The resulting test suspensions were then used in Tests A-G. Compounds were sprayed at a concentration of 50 ppm (*) or 10 ppm to the point of run-off on the test plants, the equivalent of a rate of 200 g/ha or 40 g/ha, respectively.
The test solution was sprayed to the point of run-off on tomato seedlings. The following day the seedlings were inoculated with a spore suspension of Botrytis cinerea (the causal agent of gray mold on many crops) and incubated in a saturated atmosphere at 20° C. for 48 h, and moved to a growth chamber at 27° C. for 2 days, after which time visual disease ratings were made.
(§2) Compounds with an asterisks (*) were applied at a concentration of 50 ppm, otherwise test solutions were applied at 10 ppm.

Zymoseptoria tritici = experiment: Test E: wheat leaf blotch, preventive spray on wheat seedlings; details: 100 = 100% disease control; for Test E rating (% disease control): 10 ppm, wheat leaf blotch, 0 = no control
[1] = system: Puccinia recondita f sp. tritici; experiment: Test F: wheat leaf rust, preventive spray on wheat seedlings; details: 100 = 100% disease control; for Test F rating (% disease control): 10 ppm, wheat leaf rust, 0 = no control
[2] = system: Erysiphe graminis f sp. tritici; experiment: Test G: wheat powdery mildew, preventive spray on wheat seedlings; details: 100 = 100% disease control; for Test G rating (% disease control): 10 ppm, wheat powdery mildew, 0 = no control
From the text: as §1
The test solution was sprayed to the point of run-off on wheat seedlings. The following day the seedlings were inoculated with a spore dust of Erysiphe graminis f sp. tritici, (the causal agent of wheat powdery mildew) and incubated in a growth chamber at 20° C. for 8 days, after which time visual disease ratings were made.
as §2

[3] = 10 ppm test solution, 0 = no control relative to controls

SMILES | Test D rating (% disease control) (Stagonospora nodorum) | Test B rating (% disease control) (Botrytis cinerea) | Test E rating (% disease control) (Zymoseptoria tritici) | Test F rating (% disease control) [1] | Test G rating (% disease control) [2] | Test D disease control rating (Stagonospora nodorum; [3]) | Test B disease control rating (Botrytis cinerea; [3]) | Test E disease control rating (Zymoseptoria tritici; [3]) | Test F disease control rating [1, 3] | Test G disease control rating [2, 3]
CC#CC(O)(Cn1cncn1)C1=NOC(c2ccc(Cl)cc2)C1 (stereo not drawn) [Compound 104, α-[5-(4-chlorophenyl)-4,5-dihydro-3-isoxazolyl]-α-1-propyn-1-yl-1H-1,2,4-triazole-1-ethanol] | 100% | 0% | 0% | 97% | 93% | – | – | – | – | –
OC(Cn1cncn1)(C1=NOC(c2ccc(C(F)(F)F)cc2)C1)c1ccc(C(F)(F)F)cc1 (single isomer, unassigned) [Compound 154] | 0% | 0% | 1% | 52% | 83% | – | – | – | – | –
CC(C)(C)C(O)(Cn1cncn1)C1=NOC(COc2cccc(Br)c2)C1 (single isomer, unassigned) [Compound 233] | – | – | – | – | – | 100% | 40% | 0% | 100% | 99%
OC(Cn1cncn1)(C1=NOC(c2ccc(Cl)cc2)C1)c1ccc(Br)cc1 (single isomer, unassigned) [Compound 180] | 99% | 0% | 1% | 100% | 100% | – | – | – | – | –
CC(C)(C)C(O)(Cn1cncn1)C1=NOC(CSc2ccc(Cl)cc2)C1 (single isomer, unassigned) [Compound 27] | 59% | 51% | 0% | 68% | 89% | – | – | – | – | –
CC(C)(C)CC(O)(Cn1cncn1)C1=NOC(COc2ccc(Br)cc2)C1 (single isomer, unassigned) [Compound 171] | 63% | 0% | 0% | 100% | 94% | – | – | – | – | –
CC(C)(C)C(O)(Cn1cncn1)C1=NOC(COc2ccc(-n3cccn3)cc2)C1 (single isomer, unassigned) [Compound 29] | 49% | 0% | 0% | 0% | 99% | – | – | – | – | –
CC(C)(C)C(O)(Cn1cncn1)C1=NOC(COc2ccc(OC(F)(F)F)cc2)C1 (single isomer, unassigned) [Compound 24] | 99% | 37% | 0% | 100% | 100% | – | – | – | – | –
CC(C)(C)C(O)(Cn1cncn1)C1=NOC(Cc2ccc(Br)cc2)C1 (single isomer, unassigned) [Compound 52] | 100% | 98% | 4% | 100% | 100% | – | – | – | – | –
OC(Cn1cncn1)(C1=NOC(c2ccc(-n3ccc(C(F)(F)F)n3)cc2)C1)c1ccc(Cl)cc1 (single isomer, unassigned) [Compound 148] | 59% | 0% | 92% | 100% | 100% | – | – | – | – | –
CC(C)(C)C(O)(Cn1cncn1)C1=NOC(Cn2ccc(C(F)(F)F)n2)C1 (single isomer, unassigned) [Compound 48] | 94% | 0% | 0% | 99% | 99% | – | – | – | – | –
OC(Cn1cncn1)(C1=NOC(c2ccc(Cl)cc2)C1)C1CCCCC1 (single isomer, unassigned) [Compound 196] | 99% | 0% | 12% | 100% | 100% | – | – | – | – | –
CC(C)(C)C(O)(Cn1cncn1)C1=NOC(COc2ccc(-n3cc(Cl)cn3)cc2)C1 (centres unmarked) [Compound 31] | 0% | 0% | 0% | 0% | 100% | – | – | – | – | –
OC(Cn1cncn1)(C1=NOC(c2ccc(Cl)cc2)C1)c1ccccc1Cl (single isomer, unassigned) [Compound 151] | 0% | 0% | 76% | 84% | 90% | – | – | – | – | –
OC(Cn1cncn1)(C1=NOC(c2ccc(Cl)cc2)C1)c1ccccc1F (single isomer, unassigned) [Compound 135] | 69% | 0% | 1% | 98% | 81% | – | – | – | – | –
CC(C)(C)C(O)(Cn1cncn1)C1=NOC(CO[Si](C)(C)C(C)(C)C)C1 (single isomer, unassigned) [Compound 10] | 0% | 0% | 0% | 19% | 13% | – | – | – | – | –
CCC(C)(C)C(O)(Cn1cncn1)C1=NOC(Cc2ccc(Cl)cc2)C1 (single isomer, unassigned) [Compound 18] | 87% | 0% | 6% | 100% | 99% | – | – | – | – | –
CCC(C)(C)C(O)(Cn1cncn1)C1=NOC(COc2ccc(Br)cc2)C1 (single isomer, unassigned) [Compound 12] | 68% | 0% | 57% | 99% | 96% | – | – | – | – | –
CC(C)(C)C(O)(Cn1cncn1)C1=NOC(COc2ccc(Cl)cn2)C1 (single isomer, unassigned) [Compound 96] | 100% | 85% | 5% | 100% | 99% | – | – | – | – | –
CC(C)(C)C(O)(Cn1cncn1)C1=NOC(COCc2ccccc2)C1 (single isomer, unassigned) [Compound 60] | 73% | 0% | 3% | 28% | 90% | – | – | – | – | –
CC(C)(C)CC(O)(Cn1cncn1)C1=NOC(Cc2ccc(Cl)cc2)C1 (single isomer, unassigned) [Compound 206] | 86% | 9% | 13% | 100% | 99% | – | – | – | – | –
CC(C)(C)C(O)(Cn1cncn1)C1=NOC(c2ccc(-n3cc(Br)cn3)cc2)C1 (single isomer, unassigned) [Compound 7] | 0% | 99% | 14% | 100% | 100% | – | – | – | – | –

From US20160242416A1, “FUNGICIDAL ISOXAZOLINE CARBINOLS” (E I DU PONT DE NEMOURS AND COMPANY, priority 2015, published 2016)
